Reference: article PMC10035904, “Synthesis of novel sulphamethoxazole derivatives and exploration of their anticancer and antimicrobial properties” (PLOS ONE, 2023)
Where two headings read alike, the source gives them in different places.

Key:
CaKi-1 cells = conditions: cited from earlier work
[1] = test system: HF, PPC-1, and CaKi-1 cells; assay: MTT cell viability screen at 100 μM (cell line not given); type: cell-based, human; conditions: 72 h, cell line not stated
Description: The effect of synthesized compounds on cell viability was studied using 3-(4,5-dimethylthiazol-2-yl)-2,5-diphenyltetrazolium bromide (MTT; Sigma-Aldrich Co., St Louis, MO, USA) assay, as described elsewhere. Briefly, HF, PPC-1, and CaKi-1 cells were seeded in 96-well plates (Corning) in triplicates at a volume of 100 μL at a concentration of 4 × 10^3 cells/well. After 24 h of incubation, the cells were treated with 100 μM of tested compounds. After 72 h, the MTT reagent (at 0.5 mg/mL concentration) has been added to the wells, and cells were incubated for 4 h. Then the medium was aspirated, and the formed purple crystals were dissolved in 100 μL DMSO (Sigma-Aldrich Co.). The absorbance was measured at 570 and 630 nm using a multi-detection microplate reader. The compound effect on cell viability was calculated using a formula (1): Relativecellviability%=A−A0/ANC−A0 (1) Where: […]

[2] = test system: human prostate carcinoma cell line PPC-1; assay: MTT cell viability assay, PPC-1; type: cell-based; conditions: 72 hours of incubation, n = 3, read-out: EC50 against PPC-1
Description: (§1) The human clear cell renal cell carcinoma line (CaKi-1) was obtained from American Type Culture Collection (ATCC, Manassas, VA). The human prostate carcinoma cell line PPC-1 was originally obtained from ATCC and kindly provided by Prof. Tambet Teesalu (University of Tartu, Estonia). Human foreskin fibroblasts (HF) CRL-4001 were originally obtained from ATCC and kindly provided by Prof. Helder Santos (University of Helsinki, Finland). Cells were cultured in Dulbecco’s Modified Eagle’s GlutaMAX medium (Gibco (Carlsbad, CA, USA) supplemented with 10,000 U/mL penicillin, 10 mg/mL streptomycin (Gibco), and 10% fetal bovine serum (Gibco). During cell passaging, Tryple Express reagent (Gibco) was used for cell detachment. Cell cultures were grown at 37°C in a humidified atmosphere containing 5% CO2. They were used until the passage of 20.
(§2) The effect of synthesized compounds on cell viability was studied using 3-(4,5-dimethylthiazol-2-yl)-2,5-diphenyltetrazolium bromide (MTT; Sigma-Aldrich Co., St Louis, MO, USA) assay, as described elsewhere. […] The absorbance was measured at 570 and 630 nm using a multi-detection microplate reader. The compound effect on cell viability was calculated using a formula (1): Relativecellviability%=A−A0/ANC−A0 (1) Where: […]

[3] = test system: human clear cell renal cell carcinoma line (CaKi-1); assay: MTT cell viability assay, CaKi-1; type: cell-based; conditions: 72 hours of incubation, n = 3, read-out: EC50 against CaKi-1
Description: as §1, §2

[4] = test system: Human foreskin fibroblasts (HF) CRL-4001; assay: MTT cell viability assay, fibroblasts HF; type: cell-based; conditions: Fibroblast, 72 hours of incubation, n = 3, read-out: EC50 against HF
Description: as §1, §2

| melting point | SMILES | reduced cell viability up to about [1] | other results |
| --- | --- | --- | --- |
|  | Cc1ccc(Nc2nccc(N(C)c3ccc4c(C)n(C)nc4c3)n2)cc1S(N)(=O)=O [pazopanib] |  | EC50 (CaKi-1 cells; after 72 hours of incubation, read-out: EC50 (renal cancer drugs, compared with CaKi-1 data)): 30 µM |
| 202 to 203 °C | Cc1cc(NS(=O)(=O)c2ccc(NCCC(=O)NN=Cc3ccccc3Cl)cc2)no1 [Compound 15e, 4-((3-(2-(2-Chlorobenzylidene)hydrazineyl)-3-oxopropyl)amino)-N-(5-methylisoxazol-3-yl)benzene-sulfonamide] | about 40% |  |
| 206 to 207 °C | Cc1cc(NS(=O)(=O)c2ccc(NCCC(=O)NN=Cc3cccc4ccccc34)cc2)no1 [Compound 15k, N-(5-methylisoxazol-3-yl)-4-((3-(2-(naphthalen-1-ylmethylene)hydrazineyl)-3-oxopropyl)amino)-benzenesulfonamide] | about 40% | EC50 [2]: > 100 µM; EC50 [3]: > 100 µM; EC50 [4]: > 100 µM |
|  | CCN(CC)CCNC(=O)c1c(C)[nH]c(/C=C2\C(=O)Nc3ccc(F)cc32)c1C [sunitinib] |  | EC50 (CaKi-1 cells; read-out: EC50 against CaKi-1 cells): 2.2 µM |
| 195 to 196 °C | Cc1cc(NS(=O)(=O)c2ccc(NCCC(=O)NN=Cc3ccc([N+](=O)[O-])s3)cc2)no1 [Compound 16d, N-(5-methylisoxazol-3-yl)-4-((3-(2-((5-nitrothiophen-2-yl)methylene)hydrazineyl)-3-oxopropyl)amino)-benzenesulfonamide] | about 40% |  |
